The source of these data is patent publication US20050227994A1, “Decomposition inhibitor for extracellular matrix of cartilage” (Shionogi & Co., Ltd., priority 2002, published 2005).

Structures are written as SMILES. “Also recorded” adds a separate entry of the source.

The first experiment deals with cartilage disks of juvenile rabbits, IL-1 stimulated GAG release. Briefly: Cartilage culture test (IL-1 induced GAG release). It is filed as cell-based, rabbit. The following applies: stated in text for the compound of FIG. 1. As for the experimental part:
Cartilage disks (2 mm in diameter) were prepared from the cartilage of juvenile rabbits (3 weeks). Cartilage disks were transferred and cultured individually in the wells of a 48-well tissue culture plate containing DMEM/10% FCS for over 3 days at 37° C. In the night before the test, the medium of DMEM was changed to that not containing FCS. Next morning, IL-1 (4 ng/ml) and a test compound were added to the plate. It is provided that some wells of a plate contain only IL-1 (not containing test compound) and that some wells are vehicle (not containing IL-1 and test compound). After 4 days from the IL-1 addition, the amount of released glycosaminoglycan (GAG) was measured after collecting culture supernatant and cartilage disks.
Quantitation of GAG release was as follows; the weight of the cartilage disk was measured, then 200 μl of a papain digestion buffer solution (1 mM EDTA, 2 mM DTT, 20 mM Tris, (pH 7.0), Papain (300 μg/ml)) was added to each well and the plate containing the digestive solution was incubated for 2 h at 65° C. 50 μl of 100 mM Iodoacetatic acid (pH 7.0) was added for stopping the digestion. The extracts of cartilage are centrifuged at 12000 rpm for 5 min. […] The amount of released GAG in the transferred solution was quantitated by using a proteoglycan & glycosaminoglycan assay kit (Blyscan, Funakoshi Co., Ltd, Tokyo, Japan).
Compound `CC(C)C(NS(=O)(=O)c1ccc(Oc2ccccc2)cc1)C(=O)NO` (stereo not shown) [XXI] returned a GAG value of 87.

Another experiment relates to aggrecanase. Description: Aggrecanase inhibitory activity test (western blot with anti ARGSV antibody). It is filed as cell-based, rabbit. The settings on record: 4 days culture supernatant containing both IL-1 and test compound. As for the experimental part: To 50 μl of the above 4 days cultured supernatant (not including IL-1 and a test compound, including IL-1 only, including both IL-1 and a test compound) was added a 5 volume solution of 95% EtOH containing 1.3% (w/v) potassium acetate. After the mixed solution was stood at −20° C. for 30 min, the solution was centrifuged to obtain a precipitation. The precipitation was solubilized in 100 μl of 25 mM Tris-hydrochloric acid buffer solution (pH7.6) containing 5 mM calcium chloride*0.15M sodium chloride*0.0025% Brij35. After addition of 5 μl of 250 mM ethylenediaminetetraacetic acid, and 2.5 μl each of 1M sodium acetate (pH6.0) and 1M Tris-hydrochloric acid (pH7.9) to the solution, 2.5 μl of 0.02 units/μl Chondroitinase ABC and 1.0 μl of 0.1 units/μl Keratanase (Both are Seikagaku Kogyo, Japan) were added and the mixture was incubated at 37° C. for 16 h to remove GAG. […]
In the culture supernatant containing only IL-1, the 250 kDa aggrecanase-generated fragment of aggrecan which was recognized by anti N-terminus neoepitope antibody was observed, which was not detected in the supernatant not containing IL-1 and a test compound (XXI). On the other hand, in the culture supernatant containing both IL-1 and a test compound (XXI), the 250 kDa aggrecanase-generated fragment was not detected.
On the technique in general: In western blotting, separated proteins are transferred to a membrane and probed.
Consider `CC(C)C(NS(=O)(=O)c1ccc(Oc2ccccc2)cc1)C(=O)NO` (stereo not shown) [XXI], for which the “250 kDa aggrecanase-generated fragment of aggrecan (new N-terminus ARGSV), western blot” value is recorded as “inhibits the production of aggrecanase-generated new N-terminus (ARGSV); also recorded: not detected”.

The next experiment concerns the target T1, MMP-13 (Homo sapiens, UniProt P45452).
T1 construct: catalytic domain (^104Tyr˜^267Gly) was amplified with RT-PCR; His-tag; enterokinase digestion-site; made in house
Description: Assay for inhibitory activities on MMP-13. It counts as biochemical. The settings on record: catalytic domain, substrate MOCAc-Pro-Leu-Gly-Leu-A2Pr(DNP)-Ala-Arg-NH2; read-out: MMP-13 (IC50μM). As for the experimental part: In regard to MMP-13, mRNA was prepared from carcinoma cell SW1353 derived from human cartilage stimulate by IL-1, TNF and catalytic domain (^[…]) was amplified with RT-PCR. This was cloned in Escherichia. coli expression vector […] inserted with His-tag sequence and enterokinase digestion-site, induced and expressed by IPTG (Isopropyl-β-D-thiogalactopyranoside) and expressed in a insoluble fraction. Isolation of MMP-13 from an insoluble fraction was carried out by dissolving in modifier (6M urea) by a usual method and purification with metal chelate chromatography (Ni […] Sepharose). […] The enzymatic activity on MMP was analyzed by the method described in “C. Graham Knight, Frances Willenbrock and Gillian Murphy: A novel coumarin-labelled peptide for sensitive continuous assays of the matrix metalloproteinases: […] The substrate: MOCAc-[…] was purchased from Peptide Institute, Inc., Osaka, Japan.
For `Cc1ccc(-c2ccc(S(=O)(=O)NC(C(=O)O)C(C)C)s2)cc1` (stereo not shown) [Compound F-20], the IC50 was found to be 0.811 µM.

For the compound `CC(C)C(NS(=O)(=O)c1ccc(-c2ccc(OC(F)(F)F)cc2)cc1)C(=O)O` (stereo not shown) [Compound E-20], the IC50 turned out to be 0.0141 µM.

`C[C@H](NS(=O)(=O)c1ccc(-c2ncc(-c3ccc4ccccc4c3)s2)cc1)C(=O)O` [Compound A-13]: the IC50 was determined as 0.019 µM.

Consider `C[C@@H](NS(=O)(=O)c1ccc(-c2ccc(-c3ccc4ccccc4c3)cc2)cc1)C(=O)O` [Compound E-28], for which the IC50 was found to be 0.012 µM.

Turning to `CC(C)C(NS(=O)(=O)c1ccc(-c2ccccc2)cc1)C(=O)O` (stereo not shown) [Compound E-1], the IC50 is 0.4 µM.

Take `O=C(O)c1ccc(C#Cc2ccc(S(=O)(=O)N[C@H](Cc3ccccc3)C(=O)O)s2)cc1` [Compound H-3]: the IC50 is 6 µM.

As to `CCc1ccc(-c2ccc(S(=O)(=O)NC(C(=O)O)C(C)C)cc2)cc1` (stereo not shown) [Compound E-18], the IC50 was determined as 0.0204 µM.

For the compound `O=C(O)[C@@H](Cc1ccccc1)NS(=O)(=O)c1ccc(C#Cc2cccc3ccccc23)s1` [Compound H-7], the IC50 is greater than 10 µM.

With `CSc1ccc(-c2ccc(S(=O)(=O)N[C@H](CO)C(=O)O)cc2)cc1` [Compound E-12], the IC50 was found to be 0.0165 µM.

As to `CSc1ccc(-c2ccc(S(=O)(=O)NC(C(=O)O)c3cccs3)cc2)cc1` (stereo not shown) [Compound E-13], the IC50 came out at 0.0254 µM.

`CSCC[C@@H](NS(=O)(=O)c1ccc(-c2ccc(SC)cc2)cc1)C(=O)O` [Compound E-7]: the IC50 turned out to be 0.0197 µM.

Consider `CS(=O)(=O)OCCc1ccc(-n2nnc(-c3ccc(S(=O)(=O)N[C@H](Cc4ccccc4)C(=O)O)cc3)n2)cc1` [Compound I-4], for which the IC50 is 0.0082 µM.

For `CSc1ccc(-c2cnc(-c3ccc(S(=O)(=O)N[C@@H](C(=O)O)C(C)C)cc3)s2)cc1` [Compound A-25], the IC50 came out at 0.00033 µM.

As for `CC(C)[C@@H](NS(=O)(=O)c1ccc(-c2ccc(-c3ccc4ccccc4c3)cc2)cc1)C(=O)O` [Compound E-22], the IC50 was determined as 0.0139 µM.

For `CCc1ccc(-c2nc(-c3ccc(S(=O)(=O)N[C@@H](C(=O)O)C(C)C)cc3)no2)cc1` [Compound C-1], the IC50 came out at 0.01 µM.

With `CSCC[C@@H](NS(=O)(=O)c1ccc(-c2ncc(-c3ccc(Br)cc3)s2)cc1)C(=O)O` [Compound A-8], the IC50 came out at 0.0038 µM.

As to `CSc1ccc(-c2ccc(S(=O)(=O)N[C@H](CC(=O)O)C(=O)O)cc2)cc1` [Compound E-9], the IC50 came out at 0.0132 µM.

Turning to `O=C(O)[C@H](CO)NS(=O)(=O)c1ccc(C#Cc2ccc3c(c2)OCO3)cc1` [Compound G-12], the IC50 stood at 0.147 µM.

Regarding `O=C(O)[C@H](Cc1c[nH]c2ccccc12)NS(=O)(=O)c1ccc(-c2ccc(N3CCCC3)cc2)s1` [Compound F-7], the IC50 was 0.043 µM.

Consider `CCc1ccc(-c2nc(-c3ccc(S(=O)(=O)N[C@H](Cc4ccccc4)C(=O)O)s3)no2)cc1` [Compound N-8], for which the IC50 worked out at 0.182 µM.

For the compound `C[C@@H](NS(=O)(=O)c1ccc(-c2ncc(-c3ccc4c(c3)OCO4)s2)cc1)C(=O)O` [Compound A-17], the IC50 came out at 0.0065 µM.

For the compound `CSc1ccc(-c2ccc(S(=O)(=O)NC(Cc3ccccc3)C(=O)O)s2)cc1` (stereo not shown) [Compound F-24], the IC50 turned out to be 0.0831 µM.

Regarding `CSCC[C@@H](NS(=O)(=O)c1ccc(-c2ccc(SC)cc2)s1)C(=O)O` [Compound F-3], the IC50 was 0.007 µM.

On to `O=C(O)C(Cc1ccccc1)NS(=O)(=O)c1ccc(-c2ccc(F)cc2)cc1` (stereo not shown) [Compound E-26], for which the IC50 came to 0.21 µM.

For `CNc1ccc(-c2ccc(S(=O)(=O)N[C@@H](Cc3ccccc3)C(=O)O)s2)cc1` [Compound F-22], the IC50 came to 0.854 µM.

On to `CSCC[C@@H](NS(=O)(=O)c1ccc(-c2noc(-c3ccc(C(C)C)cc3)n2)cc1)C(=O)O` [Compound C-6], for which the IC50 stood at 0.018 µM.

As for `CN(C)c1ccc(-c2ccc(S(=O)(=O)N[C@H]3CCC[C@@H]3C(=O)O)s2)cc1` [Compound O-3], the IC50 was determined as 0.353 µM.

Regarding `Cc1ccc(-c2ccc(-c3ccc(S(=O)(=O)N[C@@H](C(=O)O)C(C)C)s3)s2)cc1` [Compound L-1], the IC50 worked out at 0.031 µM.

For `CSCC[C@@H](NS(=O)(=O)c1ccc(-c2ncc(-c3ccc4c(c3)OCO4)s2)cc1)C(=O)O` [Compound A-19], the IC50 was 0.0092 µM.

Take `CC(C)C[C@@H](NS(=O)(=O)c1ccc(-c2ncc(-c3ccc(Cl)c(Cl)c3)s2)cc1)C(=O)O` [Compound A-24]: the IC50 stood at 0.0482 µM.

As to `CCCCc1ccc(-c2ccc(-c3ccc(S(=O)(=O)N[C@@H](C(=O)O)C(C)C)cc3)s2)cc1` [Compound K-2], the IC50 stood at 0.0116 µM.

`CSCC[C@@H](NS(=O)(=O)c1ccc(-c2ccc(-c3ccc(C)cc3)s2)cc1)C(=O)O` [Compound K-4]: the IC50 amounted to 0.0938 µM.

Regarding `O=C(O)[C@H](NS(=O)(=O)c1ccc(-c2ccc(N3CCCC3)cc2)s1)c1ccc(O)cc1` [Compound F-17], the IC50 was found to be 0.0037 µM.

For the compound `CCSc1ccc(-c2ccc(S(=O)(=O)NC(C(=O)O)C(C)C)cc2)cc1` (stereo not shown) [Compound E-15], the IC50 amounted to 0.0195 µM.

For the compound `CSc1ccc(-c2ccc(-c3ccc(S(=O)(=O)N[C@@H](C(=O)O)C(C)C)cc3)s2)cc1` [Compound K-5], the IC50 is 0.00526 µM.

Regarding `CSc1ccc(-c2cnc(-c3ccc(S(=O)(=O)N[C@H](C(=O)O)C(C)C)cc3)s2)cc1` [Compound A-26], the IC50 was found to be 0.00045 µM.

For `CSc1ccc(-c2ccc(S(=O)(=O)NC(Cc3ccccc3)C(=O)O)cc2)cc1` (stereo not shown) [Compound E-6], the IC50 is 0.0026 µM.

Turning to `CSc1ccc(-c2nnn(-c3ccc(S(=O)(=O)N[C@H](Cc4ccccc4)C(=O)O)cc3)n2)cc1` [Compound J-1], the IC50 came out at 0.0485 µM.
